Assay results: patent US9108921B2, “Therapeutic compounds and compositions” (AGIOS PHARMACEUTICALS, INC, priority 2014, dated 2015)

Key:
Type in all cases: biochemical
[1] = target: PKR R510Q (Homo sapiens, UniProt P30613, R510Q); assay: PKR Mutant Assay, AC50 against PKR R510Q; conditions: mutant PKR R510Q enzyme
Procedure: (§1) • PKR or PKR mutant enzyme solution was diluted in assay buffer. • 2 μL of test compound was added into wells first, and then 180 μL reaction mix was added. • Reactions mixture with test compound was assembled except for ADP, and plates were stored for 60 minutes at room temperature. • 20 uL ADP was added to start reaction at room temperature and reaction progress was measured as changes in absorbance at 340 nm wavelength at room temperature.
(§2) Test Compound Preparation: • Test compound stock was made at 100× concentration in 100% DMSO (10 mM) • 1 to 3 dilutions were made for 11 points (i.e. 50 μl of first concentration added to 100 μl 100% DMSO to yield 3.33 mM, 50 μl of this added to 100 μl DMSO to yield 1.11 mM, and so forth) • 1 to 100 dilution into assay (2 μl in 200 μl) yielded starting concentration of 100 μM, decreasing 3 fold for 11 points. Assay Buffer: 100 mM KCl, 50 mM Tris 7.5, 5 mM MgCl2, 1 mM DTT, 0.03% BSA Reaction Mixture: PKR mutant enzyme: 80-400 ng/well; ADP: 0.22-1.65 mM; PEP: 0.1-0.5 mM; NADH: 180 uM; LDH: 0.5 units (Sigma#59023); DTT: 1 mM; BSA: 0.03%.

[2] = target: PKR R532W (Homo sapiens, UniProt P30613, R532W); assay: PKR Mutant Assay, AC50 against PKR R532W; conditions: mutant PKR R532W enzyme
PKR R532W, sequence (P30613 whole entry R532W): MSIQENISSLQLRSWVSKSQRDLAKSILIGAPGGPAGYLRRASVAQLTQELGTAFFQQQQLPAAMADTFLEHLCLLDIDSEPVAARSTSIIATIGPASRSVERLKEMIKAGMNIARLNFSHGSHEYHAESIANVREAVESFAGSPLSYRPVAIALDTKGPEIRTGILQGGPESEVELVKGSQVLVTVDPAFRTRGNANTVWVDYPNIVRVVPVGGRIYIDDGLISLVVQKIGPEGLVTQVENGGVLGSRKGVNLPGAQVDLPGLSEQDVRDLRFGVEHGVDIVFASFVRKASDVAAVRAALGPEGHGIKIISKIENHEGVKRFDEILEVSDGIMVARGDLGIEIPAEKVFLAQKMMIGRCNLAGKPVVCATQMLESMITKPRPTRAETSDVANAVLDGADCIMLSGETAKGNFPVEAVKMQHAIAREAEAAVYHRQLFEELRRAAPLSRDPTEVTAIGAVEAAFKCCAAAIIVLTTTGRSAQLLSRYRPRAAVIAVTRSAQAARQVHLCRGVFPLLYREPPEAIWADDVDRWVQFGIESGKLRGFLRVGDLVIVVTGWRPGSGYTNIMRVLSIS
Procedure: as §1, §2

[3] = target: PKR WT (Homo sapiens, UniProt P30613); assay: PKR WT enzymatic AC50 assay; conditions: wild type PKR
PKR WT, sequence (P30613 whole entry): as the sequence (P30613 whole entry R532W) above, with W532R counted along it
Procedure: as §1, §2

PKR R510Q, sequence (P30613 whole entry R510Q): as the sequence (P30613 whole entry R532W) above, with R510Q, W532R counted along it

Structure (SMILES) | AC50 [1] | AC50 [2] | AC50 [3]
O=C(c1ccc(NS(=O)(=O)c2cccc3scnc23)cc1)N1CCC(O)(CC2CC2)CC1 [Compound 198, N-(4-(4-(cyclopropylmethyl)-4-hydroxypiperidine-1-carbonyl)phenyl)benzo[d]thiazole-4-sulfonamide] | 101 to 1000 nM | < 100 nM | < 100 nM
O=C(c1ccc(NS(=O)(=O)c2cccc3cccnc23)nc1)N1CCC(O)(c2ccccc2)CC1 [Compound 306] | > 10000 nM | 1010 to 10000 nM | 1010 to 10000 nM
O=C(c1ccc(NS(=O)(=O)c2cccc3scnc23)cc1)N1CCC(O)(c2cn[nH]c2)CC1 [Compound 410, N-[4-[4-hydroxy-4-(1H-pyrazol-4-yl)piperidine-1-carbonyl]phenyl]benzothiazole-4-sulfonamide] | > 10000 nM | 101 to 1000 nM | 101 to 1000 nM
CC(C)CC1(O)CCN(C(=O)c2ccc(NS(=O)(=O)c3csc4cccnc34)cc2)CC1 [Compound 269] | 1010 to 10000 nM | 101 to 1000 nM | 101 to 1000 nM
O=C(c1ccc(NS(=O)(=O)c2cccc3scnc23)cc1)N1CCC(O)(CCC(F)F)CC1 [Compound 235, N-(4-(4-(3,3-difluoropropyl)-4-hydroxypiperidine-1-carbonyl)phenyl)benzo[d]thiazole-4-sulfonamide] | 101 to 1000 nM | 101 to 1000 nM | 101 to 1000 nM
O=C(c1ccc(N[S+]([O-])c2cccc3cccnc23)cc1)N1CCC(O)(c2ccccc2Cl)CC1 (stereo not drawn) [Compound 311] | > 10000 nM | 1010 to 10000 nM | 1010 to 10000 nM
CC(C)CC1(O)CCN(C(=O)c2ccc(NS(=O)(=O)c3ccc(F)c4nccnc34)cc2)CC1 [Compound 242] | 101 to 1000 nM | 101 to 1000 nM | 101 to 1000 nM
O=C(c1ccc(NS(=O)(=O)c2cccc3ccnnc23)cc1)N1CCC(O)(c2ccccc2Cl)CC1 [Compound 313] | > 10000 nM | > 10000 nM | 1010 to 10000 nM
CN1C(=O)C=C2C=C(S(=O)(=O)Nc3ccc(C(=O)N4CCC(O)(Cc5ccccc5)CC4)cc3)C=CC21 (stereo not drawn) [Compound 268] | 1010 to 10000 nM | 101 to 1000 nM | 101 to 1000 nM
O=C(c1ccc(NS(=O)(=O)c2cccc3csnc23)cc1)N1CCC(O)(c2ccccc2Cl)CC1 [Compound 244, N-(4-(4-(2-chlorophenyl)-4-hydroxypiperidine-1-carbonyl)phenyl)benzo[c]isothiazole-7-sulfonamide] | 1010 to 10000 nM | 101 to 1000 nM | 101 to 1000 nM
COc1cccc(C2(O)CCN(C(=O)c3ccc(NS(=O)(=O)c4cccc5cccnc45)cc3)CC2)c1 [Compound 276] | 1010 to 10000 nM | 101 to 1000 nM | 101 to 1000 nM
O=C(c1ccc(NS(=O)(=O)c2cccc3scnc23)cc1)N1CCC(O)(c2ccccc2-c2ccccc2Cl)CC1 [Compound 271] | 1010 to 10000 nM | 101 to 1000 nM | 101 to 1000 nM
O=C(c1ccc(NS(=O)(=O)c2ccccc2C(F)(F)F)cc1)N1CCC(O)(Cc2ccccc2)CC1 [Compound 297] | 1010 to 10000 nM | 1010 to 10000 nM | 1010 to 10000 nM
O=C(c1ccc(NS(=O)(=O)c2cccc3cccnc23)c(OC(F)(F)F)c1)N1CCC(O)(c2ccccc2Cl)CC1 [Compound 270] | 1010 to 10000 nM | 101 to 1000 nM | 101 to 1000 nM
O=C(c1ccc(NS(=O)(=O)c2cccc3scnc23)cc1)N1CCC(O)(COCC(F)(F)F)CC1 [Compound 386, N-(4-(4-hydroxy-4-((2,2,2-trifluoroethoxy)methyl)piperidine-1-carbonyl)phenyl)benzo[d]thiazole-4-sulfonamide] | 101 to 1000 nM | 101 to 1000 nM | 101 to 1000 nM
O=C(c1ccc(NS(=O)(=O)c2cccc3nccnc23)c(F)c1)N1CCC(O)(c2cccc(F)c2F)CC1 [Compound 262, N-(4-(4-(2,3-difluorophenyl)-4-hydroxypiperidine-1-carbonyl)-2-fluorophenyl)quinoxaline-5-sulfonamide] | 101 to 1000 nM | 101 to 1000 nM | 101 to 1000 nM
O=C(c1ccc(NS(=O)(=O)c2cccc(OC(F)(F)F)c2)cc1)N1CCC(O)(Cc2ccccc2)CC1 [Compound 307] | > 10000 nM | 1010 to 10000 nM | 1010 to 10000 nM
COc1nc(C(=O)N2CCC(O)(c3ccccc3)CC2)ccc1NS(=O)(=O)c1cccc2cccnc12 [Compound 304] | > 10000 nM | 1010 to 10000 nM | 1010 to 10000 nM

Structure (SMILES) | AC50 [1] | AC50 [2] | AC50 [3]
Cc1nc2c(S(=O)(=O)Nc3ccc(C(=O)N4CCC(O)(c5ccccc5Cl)CC4)cc3)cccc2s1 [Compound 293] | 1010 to 10000 nM | 101 to 1000 nM | 101 to 1000 nM
CC(C)CC1(O)CCN(C(=O)c2ccc(NS(=O)(=O)c3cccc4cccnc34)c(C(F)F)c2)CC1 [Compound 258] | 101 to 1000 nM | 101 to 1000 nM | 101 to 1000 nM
O=C(c1ccc(NS(=O)(=O)c2ccc(F)c3cccnc23)cc1)N1CCC(O)(Cc2ccccc2F)CC1 [Compound 158, 5-fluoro-N-(4-(4-(2-fluorobenzyl)-4-hydroxypiperidine-1-carbonyl)phenyl)quinoline-8-sulfonamide] | < 100 nM | < 100 nM | < 100 nM
O=C(c1ccc(NS(=O)(=O)c2ccc(F)c3scnc23)cc1)N1CCC(O)(c2ccccc2Cl)CC1 [Compound 378, N-(4-(4-(2-chlorophenyl)-4-hydroxypiperidine-1-carbonyl)phenyl)-7-fluorobenzo[d]thiazole-4-sulfonamide] | 1010 to 10000 nM | 101 to 1000 nM | 101 to 1000 nM
O=C(c1ccc(NS(=O)(=O)c2cccc3nccnc23)cc1)N1CCC(O)(CCC(F)(F)F)CC1 [Compound 221, N-(4-(4-hydroxy-4-(3,3,3-trifluoropropyl)piperidine-1-carbonyl)phenyl)quinoxaline-5-sulfonamide] | 101 to 1000 nM | < 100 nM | < 100 nM
CC(C)CC1(O)CCN(C(=O)c2ccc(NS(=O)(=O)c3ccc(O)c4nccnc34)cc2)CC1 [Compound 289] | 1010 to 10000 nM | 101 to 1000 nM | 101 to 1000 nM
O=C(c1ccc(NS(=O)(=O)c2cccc3cccnc23)c(OC(F)F)c1)N1CCC(O)(c2ccccc2Cl)CC1 [Compound 263, N-(4-(4-(2-chlorophenyl)-4-hydroxypiperidine-1-carbonyl)-2-(difluoromethoxy)phenyl)quinoline-8-sulfonamide] | 101 to 1000 nM | 101 to 1000 nM | 101 to 1000 nM
N#Cc1cc(C(=O)N2CCC(O)(c3ccccc3Cl)CC2)ccc1NS(=O)(=O)c1cccc2cccnc12 [Compound 273] | 1010 to 10000 nM | 101 to 1000 nM | 101 to 1000 nM
O=C(c1ccc(NS(=O)(=O)c2cccc3nccnc23)cc1)N1CCC(O)(CCC(F)F)CC1 [Compound 230, N-(4-(4-(3,3-difluoropropyl)-4-hydroxypiperidine-1-carbonyl)phenyl)quinoxaline-5-sulfonamide] | 101 to 1000 nM | 101 to 1000 nM | 101 to 1000 nM
CC(C)CC1(O)CCN(C(=O)c2ccc(NS(=O)(=O)Cc3ccccn3)cc2)CC1 [Compound 324] | > 10000 nM | > 10000 nM | > 10000 nM
O=C(c1ccc(NS(=O)(=O)c2cccc3ncccc23)cc1)N1CCC(O)(c2ccccc2)CC1 [Compound 300] | > 10000 nM | 1010 to 10000 nM | 1010 to 10000 nM
CC(C)CC1(O)CCN(C(=O)c2ccc(NS(=O)(=O)c3cccc4[nH]c(=O)cnc34)cc2)CC1 [Compound 438] | 1010 to 10000 nM | 1010 to 10000 nM | 1010 to 10000 nM
CC(C)CC1(O)CCN(C(=O)c2ccc(NS(=O)(=O)c3ccc(F)c4scnc34)cc2)CC1 [Compound 240, 7-fluoro-N-(4-(4-hydroxy-4-isobutylpiperidine-1-carbonyl)phenyl)benzo[d]thiazole-4-sulfonamide] | 101 to 1000 nM | 101 to 1000 nM | 101 to 1000 nM
O=C(c1c(F)cc(NS(=O)(=O)c2cccc3cccnc23)cc1F)N1CCC(O)(c2ccccc2Cl)CC1 [Compound 232, N-(4-(4-(2-chlorophenyl)-4-hydroxypiperidine-1-carbonyl)-3,5-difluorophenyl)quinoline-8-sulfonamide] | 101 to 1000 nM | 101 to 1000 nM | 101 to 1000 nM
O=C(c1ccc(NS(=O)(=O)n2ccc3cccnc32)cc1)N1CCC(O)(c2ccccc2Cl)CC1 [Compound 318] | > 10000 nM | > 10000 nM | > 10000 nM
O=C(c1ccc(NS(=O)(=O)c2cccc3nc(F)ccc23)cc1)N1CCC(O)(c2ccccc2Cl)CC1 [Compound 259, N-(4-(4-(2-chlorophenyl)-4-hydroxypiperidine-1-carbonyl)phenyl)-2-fluoroquinoline-5-sulfonamide] | 1010 to 10000 nM | 101 to 1000 nM | 101 to 1000 nM
CNc1nc2c(S(=O)(=O)Nc3ccc(C(=O)N4CCC(O)(c5ccccc5Cl)CC4)cc3)cccc2s1 [Compound 409] | < 100 nM | < 100 nM | < 100 nM
CC(C)CC1(O)CCN(C(=O)c2ccc(NS(=O)(=O)c3cc(F)cc4scnc34)cc2)CC1 [Compound 202, 6-fluoro-N-(4-(4-hydroxy-4-isobutylpiperidine-1-carbonyl)phenyl)benzo[d]thiazole-4-sulfonamide] | 101 to 1000 nM | < 100 nM | < 100 nM
